Laboratory results reported in US10821115B2, “Compounds that inhibit Mcl-1 protein” (priority 2017, dated 2020).
Where two headings read alike, the source gives them in different places.

Legend:
[1] = biological target: recombinant human Mcl-1 (residues 171-327) / Bim interaction (Homo sapiens (Human), UniProt Q07820); assay: biochemical; assay type: binding
[2] = system: human multiple myeloma cell line, OPM-2; assay: Cell viability assay (OPM-2 10 FBS), CellTiter-Glo; assay type: cell-based
In short: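 Cells were seeded at 3000 cells/well in RPMI 1640 with 10% FBS and exposed to serially diluted compounds for 16 h at 37 °C, 5% CO2.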

[3] = 0.1 nM Mcl-1(171-327), 0.05 nM biotin-Bim (51-76), read-out: Mcl-1 HTRF IC50
[4] = Homo sapiens, OPM-2, 16 h, read-out: OPM-2 10% FBS IC50 IP, OPM-2 cells, 10% FBS, 16 h incubation
[5] = TR-FRET, Mcl-1(171-327) / biotin-Bim (51-76), read-out: Mcl-1 HTRF IC50
[6] = Homo sapiens, OPM-2, 16 h, read-out: OPM-2 10% FBS IC50 IP, OPM-2 cells, 10% FBS, 16 h, CellTiter-Glo

Sequence of recombinant human Mcl-1 (residues 171-327) / Bim interaction (Q07820 171-327): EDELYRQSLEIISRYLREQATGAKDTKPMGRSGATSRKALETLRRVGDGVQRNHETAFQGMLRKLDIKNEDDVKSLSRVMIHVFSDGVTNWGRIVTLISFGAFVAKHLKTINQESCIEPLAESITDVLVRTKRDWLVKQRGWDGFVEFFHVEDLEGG

| Structure (SMILES) | IC50 [1, 3] [nM] | IC50 [2, 4] [nM] | IC50 [1, 5] [nM] | IC50 [2, 6] [nM] | other results |
| --- | --- | --- | --- | --- | --- |
| CO[C@]1(CN2CCC2)/C=C/C[C@H](C)[C@@H](C)S(=O)(=O)NC(=O)c2ccc3c(c2)N(C[C@@H]2CC[C@H]21)C[C@@]1(CCCc2cc(Cl)ccc21)CO3 [Example 76, (1S,3′R,6′R,7′R,8′E,11′S,12′R)-7′-(1-azetidinylmethyl)-6-chloro-7′-methoxy-11′,12′-dimethyl-3,4-dihydro-2H,15′H-spiro[naphthalene-1,22′-[20]oxa[13]thia[1,14]diazatetracyclo [14.7.2.0~3,6~.0~19,24~]pentacosa[8,16,18,24]tetraen]-15′-one 13′,13′-dioxide] | 3.81 | 670 |  |  |  |
| C[C@@H]1[C@@H](C)CCC[C@@](O)(CC(=O)N2CCN(C)CC2)[C@@H]2CC[C@H]2CN2C[C@@]3(CCCc4cc(Cl)ccc43)COc3ccc(cc32)C(=O)NS1(=O)=O [Example 100167, (1S,3′R,6′R,7′R,11′S,12′R)-6-chloro-7′-hydroxy-11′,12′-dimethyl-7′-(2-(4-methyl-1-piperazinyl)-2-oxoethyl)-3,4-dihydro-2H,15′H-spiro[naphthalene-1,22′-[20]oxa[13]thia[1,14]diazatetracyclo [14.7.2.0~3,6~.0~19,24~]pentacosa[16,18,24]trien]-15′-one 13′,13′-dioxide] |  |  | 0.377 | 339 |  |
| CO[C@]1(CN2CCN(Cc3cscn3)CC2)/C=C/C[C@H](C)[C@@H](C)S(=O)(=O)NC(=O)c2ccc3c(c2)N(C[C@@H]2CC[C@H]21)C[C@@]1(CCCc2cc(Cl)ccc21)CO3 [Example 72, (1S,3′R,6′R,7′R,8′E,11′S,12′R)-6-chloro-7′-methoxy-11′,12′-dimethyl-7′-((4-(1,3-thiazol-4-ylmethyl)-1-piperazinyl)methyl)-3,4-dihydro-2H,15′H-spiro[naphthalene-1,22′-[20]oxa[13]thia[1,14]diazatetracyclo [14.7.2.0~3,6~.0~19,24~]pentacosa[8,16,18,24]tetraen]-15′-one 13′,13′-dioxide] | 0.8 | 185 |  |  |  |
| C[C@@H]1[C@@H](C)CCC[C@](O)(c2ncccn2)[C@@H]2CC[C@H]2CN2C[C@@]3(CCCc4cc(Cl)ccc43)COc3ccc(cc32)C(=O)NS1(=O)=O (stereo in doubt) [Example 100270] |  |  |  | 3720 | IC50 ([1]; read-out: Mcl-1 HTRF IC50): 0.776 nM |
| C[C@@H]1[C@@H](C)C/C=C/[C@](C)(O)[C@@H]2CC[C@H]2CN2C[C@@]3(CCCc4cc(Cl)ccc43)COc3ccc(cc32)C(=O)NS1(=O)=O [Example 100016, (1S,3′R,6′R,7′S,8′E,11′S, 12′R)-6-chloro-7′-hydroxy-7′,11′,12′-trimethyl-3,4-dihydro-2H,15′H-spiro[naphthalene-1,22′-[20]oxa[13]thia[1,14]diazatetracyclo[14.7.2.0-3,6˜.0˜19,24˜]pentacosa[8,16,18,24]tetraen]-15′-one 13′,13′-dioxide] |  |  |  | 132 | IC50 ([1]; Mcl-1 HTRF IC50): 0.182 nM |
| CO[C@@]1(CN2CCn3nncc3C2)/C=C/C[C@H](C)[C@@H](C)S(=O)(=O)NC(=O)c2ccc3c(c2)N(C[C@@H]2CC[C@H]21)C[C@@]1(CCCc2cc(Cl)ccc21)CO3 [Example 207, (1S,3′R,6′R,7′S,8′E,11′S,12′R)-6-chloro-7′-(6,7-dihydro[1,2,3]triazolo[1,5-a]pyrazin-5(4H)-ylmethyl)-7′-methoxy-11′,12′-dimethyl-3,4-dihydro-2H,15′H-spiro[naphthalene-1,22′-[20]oxa[13]thia[1,14]diazatetracyclo [14.7.2.0~3,6~.0~19,24~]pentacosa[8,16,18,24]tetraen]-15′-one 13′,13′-dioxide] | 0.137 | 395 |  |  |  |
| C[C@@H]1[C@@H](C)C/C=C/[C@](O)(C(F)(F)C(=O)N(C)C)[C@@H]2CC[C@H]2CN2C[C@@]3(CCCc4cc(Cl)ccc43)COc3ccc(cc32)C(=O)NS1(=O)=O [Example 100413, 2-((1S,3′R,6′R,7′R,8′E,11′S,12′R)-6-chloro-7′-hydroxy-11′,12′-dimethyl-13′,13′-dioxido-15′-oxo-3,4-dihydro-2H-spiro[naphthalene-1,22′-[20]oxa[13]thia[1,14]diazatetracyclo [14.7.2.0~3,6~.0~19,24~]pentacosa[8,16,18,24]tetraen]-7′-yl)-2,2-difluoro-N,N-dimethylacetamide] |  |  | 0.228 | 556 |  |
| COCCN1CCN(C[C@@]2(OC)/C=C/C[C@H](C)[C@@H](C)S(=O)(=O)NC(=O)c3ccc4c(c3)N(C[C@@H]3CC[C@H]32)C[C@@]2(CCCc3cc(Cl)ccc32)CO4)CC1=O [Example 54, (1S,3′R,6′R,7′R,8′E,11′S,12′R)-6-chloro-7′-methoxy-7′-((4-(2-methoxyethyl)-3-oxo-1-piperazinyl)methyl)-11′,12′-dimethyl-3,4-dihydro-2H,15′H-spiro[naphthalene-1,22′-[20]oxa[13]thia[1,14]diazatetracyclo [14.7.2.0~3,6~.0~19,24~]pentacosa[8,16,18,24]tetraen]-15′-one 13′,13′-dioxide] | 0.173 | 129 |  |  |  |
| CO[C@]1(CN2CCN3CCN(S(C)(=O)=O)C[C@@H]3C2)/C=C/C[C@H](C)[C@@H](C)S(=O)(=O)NC(=O)c2ccc3c(c2)N(C[C@@H]2CC[C@H]21)C[C@@]1(CCCc2cc(Cl)ccc21)CO3 (single isomer, unassigned) [Example 237] | 0.13 |  |  |  | IC50 ([2]; read-out: OPM-2 10% FBS IC50 IP, OPM-2 cells, 10% FBS, 16 h incubation): 64 nM |
| CO[C@@]1(COCCN2CCOCC2)/C=C/C[C@H](C)[C@@H](C)S(=O)(=O)NC(=O)c2ccc3c(c2)N(C[C@@H]2CC[C@H]21)C[C@@]1(CCCc2cc(Cl)ccc21)CO3 [Example 100590, (1S,3′R,6′R,7′S,8′E,11′S,12′R)-6-chloro-7′-methoxy-11′,12′-dimethyl-7′-((2-(4-morpholinyl)ethoxy)methyl)-3,4-dihydro-2H,15′H-spiro[naphthalene-1,22′-[20]oxa[13]thia[1,14]diazatetracyclo [14.7.2.0~3,6~.0~19,24~]pentacosa[8,16,18,24]tetraen]-15′-one 13′,13′-dioxide] |  |  | 0.086 | 501 |  |
| CN[C@@H]1C[C@H](C)[C@@H](C)S(=O)(=O)NC(=O)c2ccc3c(c2)N(C[C@@H]2CC[C@H]2[C@@](C)(O)C1)C[C@@]1(CCCc2cc(Cl)ccc21)CO3 [Example 100064, (1S,3′R,6′R,7′S,9′R,11′S,12′R)-6-chloro-7′-hydroxy-7′,11′,12′-trimethyl-9′-(methylamino)-3,4-dihydro-2H,15′H-spiro[naphthalene-1,22′-[20]oxa[13]thia[1,14]diazatetracyclo [14.7.2.0~3,6~.0~19,24~]pentacosa[16,18,24]trien]-15′-one 13′,13′-dioxide] |  |  | 2.54 | 3730 |  |
| CCN(CC)C(=O)C[C@@]1(O)/C=C/C[C@H](C)[C@@H](C)S(=O)(=O)NC(=O)c2ccc3c(c2)N(C[C@@H]2CC[C@H]21)C[C@@]1(CCCc2cc(Cl)ccc21)CO3 (single isomer, unassigned) [Example 100084] |  |  | 0.745 | 1490 |  |
| CO[C@@]1(CN2CCN(CCO)CC2)/C=C/C[C@H](C)[C@@H](C)S(=O)(=O)NC(=O)c2ccc3c(c2)N(C[C@@H]2CC[C@H]21)C[C@@]1(CCCc2cc(Cl)ccc21)CO3 [Example 300, (1S,3′R,6′R,7′S,8′E,11′S,12′R)-6-chloro-7′-((4-(2-hydroxyethyl)-1-piperazinyl)methyl)-7′-methoxy-11′,12′-dimethyl-3,4-dihydro-2H,15′H-spiro[naphthalene-1,22′-[20]oxa[13]thia[1,14]diazatetracyclo [14.7.2.0~3,6~.0~19,24~]pentacosa[8,16,18,24]tetraen]-15′-one 13′,13′-dioxide] | 0.165 | 284 |  |  |  |
| CO[C@]1(c2nccn2C)/C=C/C[C@H](C)[C@@H](C)S(=O)(=O)NC(=O)c2ccc3c(c2)N(C[C@@H]2CC[C@H]21)C[C@@]1(CCCc2cc(Cl)ccc21)CO3 (single isomer, unassigned) [Example 100553] |  |  | 1.04 | 2790 |  |
| C#C[C@]1(OC)/C=C/C[C@H](C)[C@@H](C)S(=O)(=O)NC(=O)c2ccc3c(c2)N(C[C@@H]2CC[C@H]21)C[C@@]1(CCCc2cc(Cl)ccc21)CO3 [Example 100502, (1S,3′R,6′R,7′S,8′E,11′S,12′R)-6-chloro-7′-ethynyl-7′-methoxy-11′,12′-dimethyl-3,4-dihydro-2H,15′H-spiro[naphthalene-1,22′-[20]oxa[13]thia[1,14]diazatetracyclo [14.7.2.0~3,6~.0~19,24~]pentacosa[8,16,18,24]tetraen]-15′-one 13′,13′-dioxide] |  |  | 0.29 | 393 |  |
| CO[C@@]1(CN2CCOC3(COC3)C2)/C=C/C[C@H](C)[C@@H](C)S(=O)(=O)NC(=O)c2ccc3c(c2)N(C[C@@H]2CC[C@H]21)C[C@@]1(CCCc2cc(Cl)ccc21)CO3 [Example 198, (1S,3′R,6′R,7′S,8′E,11′S,12′R)-6-chloro-7′-(2,5-dioxa-8-azaspiro[3.5]non-8-ylmethyl)-7′-methoxy-11′,12′-dimethyl-3,4-dihydro-2H,15′H-spiro[naphthalene-1,22′-[20]oxa[13]thia[1,14]diazatetracyclo [14.7.2.0~3,6~.0~19,24~]pentacosa[8,16,18,24]tetraen]-15′-one 13′,13′-dioxide] | 0.181 | 1310 |  |  |  |
| C[C@@H]1[C@@H](C)C/C=C/[C@](O)(CCCO)[C@@H]2CC[C@H]2CN2C[C@@]3(CCCc4cc(Cl)ccc43)COc3ccc(cc32)C(=O)NS1(=O)=O [Example 100156, (1S,3′R,6′R,7′R,8′E,11′S,12′R)-6-chloro-7′-hydroxy-7′-(3-hydroxypropyl)-11′,12′-dimethyl-3,4-dihydro-2H,15′H-spiro[naphthalene-1,22′-[20]oxa[13]thia[1,14]diazatetracyclo [14.7.2.0~3,6~.0~19,24~]pentacosa[8,16,18,24]tetraen]-15′-one 13′,13′-dioxide] |  |  | 0.41 | 568 |  |
